Measured values taken from US6342490B1, “Pharmaceutical composition containing uscharidin or its analogues” (Phyto Corporation Limited, priority 1997, dated 2002).

Experiments:
tumour = settings: cited from earlier work
cancer cell lines = assay: NCI in vitro cell screening (SRB, dose-response); format: cell-based; settings: NCI panel, 48 hours
Excerpt: Uscharin was obtained as in Example 2 and was subjected to in vitro cell screening at the National Cancer Institute (NCI), USA in respect of a panel of cancel cell types organised into subpanels representing leukemia, lung cancers, colon cancer, cancer of the central nervous system, melanoma, ovarian cancer, renal cancer, and in some cases prostate cancer and breast cancer also.
The standard NCI methodology which was employed is described in Michael R Boyd, Principles and Practices of Oncology, Vol, 3, No. 10 (October 1989) and Monks A. et al., Journal of the National Cancer Institute, Vol. 83, No. 11, (Jun. 5, 1991).
The Dose-Response Curve is created by plotting the Calculated Percent Growth (PG) of each cell line against the log(10) of the corresponding drug concentration. The cell line curves are grouped by cell type, or subpanel. Mean Log(10) concentrations for all cell lines tested are calculated at three points: where the test compound achieved 50% inhibition of cell growth (GI50), where the test compound achieved 0% cell growth or total growth inhibition (TGI), and where the test compound achiveved 50% cell kill or 50% lethal concentration (LC50). Reference lines are shown at the percent growth values of +50 (GI50), 0 (TGI) and −50 (LC50).
Percentage Growth (PG)—of the compound on a cell line is currently calculated according to one of the following expressions:
If (Mean OD(test)−Mean OD(tzero)>=0,
PG=100×(Mean OD(test)−Mean OD(tzero)/(mean OD(ctrl)−Mean OD(tzero)
If (Mean OD(test−Mean OD(tzero)<0,
PG=100×(Mean OD(test)−Mean OD(tzero)/Mean OD(tzero)
Mean OD (tzero)=The average of optical density measurements of SRB-derived colour just before exposure of cells to the test compound.
Mean OD (test)=The average of optical density measurements of SRB-derived colour after 48 hours […] of cells to the test compound.
Mean OD (ctrl)=The average of optical density measurements of SRB-derived colour after 48 hours […] of cells to the test compound.

SCC-1 cells = assay: Nude mice injected with SCC-1 human tumour cells, drug treatment; format: in vivo, mice (BALB/c nude); settings: nude mice with SCC-1 cells; versus control
Procedure: The SCCI cells (human tumour cell line) where grown (1×10^5/ml seeding density) in 25 ml RPMI 1640 (10% foetal calf serum, 5% glutamine) in 75 cm^2 tissue culture flasks. The cells were harvested at log growth phase (5 days approximately) and washed once in saline before injection into the mice.
The “nude” mice (BALB/c nude) are reared and contained within a sealed isolator. The mice were injected with 1×10^7 cells subcut on the back, right hand side near the shoulder blades. After 7 days the mice were split randomly into the study groups (10-15 animals per group). Each was then treated with a different regime, the variable being time between injections and dose of drug at each injection, control groups were also included in the overall plan of the experiement.
During the trial a daily check was made on the animals and any animal removed if the tumour size became too large (>5-7% total body weight) or if the animal is showing signs of distress. Additional to this the tumour should be assessed every 3-4 days by an independent observer and the result recorded. Once an animal is removed from the study the tumour size, volume and weight was determined and the tumour stored for further cytological study. The reason for the animals removal from the study was also recorded, if this was not due to tumour size. […]

primate tumour cells = settings: cited from earlier work

| SMILES | in vivo tumour-inhibiting activity (tumour) | inhibitory effect on the growth of cancer cell lines in vitro (cancer cell lines) | reduction in percentage mortality due to the cancer cells (SCC-1 cells) | cytotoxic activity against primate tumour cells (primate tumour cells) |
| --- | --- | --- | --- | --- |
| C[C@@H]1C[C@H](O)[C@]2(O)O[C@@H]3C[C@@]4(C=O)[C@@H](CC[C@@H]5[C@@H]4CC[C@]4(C)[C@@H](C6=CC(=O)OC6)CC[C@]54O)C[C@H]3O[C@@H]2O1 [calotropin] | no in vivo tumour-inhibiting activity | – | – | – |
| C[C@H]1O[C@H]2O[C@@H]3C[C@@H]4CC[C@@H]5C(CC[C@]6(C)[C@@H](C7=CC(=O)OC7)CC[C@]56O)[C@@]4(C=O)C[C@H]3O[C@@]2(O)[C@H](O)[C@@H]1O (stereo partly shown) [calotoxin] | – | inhibitory effect | – | – |
| C[C@@H]1C[C@@]2(N=CCS2)[C@]2(O)O[C@@H]3C[C@@]4(C=O)[C@@H](CC[C@@H]5[C@@H]4CC[C@]4(C)[C@@H](C6=CC(=O)OC6)CC[C@]54O)C[C@H]3O[C@@H]2O1 [Uscharin, uscharin] | – | inhibitory effect | up to 45% | – |
| C[C@]12CC[C@H](O)C[C@@H]1CC[C@@H]1[C@@H]2CC[C@]2(C)[C@@H](C3=CC(=O)OC3)CC[C@]12O [uzarigenin] | no in vivo tumour-inhibiting activity | – | – | cytotoxic activity |
| C[C@@H]1CC(=O)[C@]2(O)O[C@@H]3C[C@@]4(C=O)[C@@H](CC[C@@H]5[C@@H]4CC[C@]4(C)[C@@H](C6=CC(=O)OC6)CC[C@]54O)C[C@H]3O[C@@H]2O1 [Uscharidin, uscharidin] | – | inhibitory effect | – | – |
